Data taken from patent US12180226B2, “Spirotricycle RIPK1 inhibitors and methods of uses thereof” (Merck Sharp & Dohme LLC, priority 2021, dated 2024).

target: RIPK1 (recombinant GST-RIPK1 kinase domain, residues 1-327) (Homo sapiens (Human), UniProt Q13546); assay: RIPK1-ADP-Glo Enzymatic Assay; assay type: biochemical; settings: ADP-Glo; 25 nM GST-RIPK1, 300 μM ATP; assay lower limit ~25 nM; read-out: RIPK1 V0 Ec50
Method in brief: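 GST-tagged kinase domain (residues 1-327, Sf21-expressed), 25 nM, pre-incubated 30 min with compound at ambient temperature, then reacted 150 min with 300 μM ATP and 3 μM dephosphorylated MBP in HEPES pH 7.3 buffer. ADP measured by ADP-Glo luminescence; EC50 from ten-point titration (top 100000 nM), four-parameter fit.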

Chain of RIPK1 (recombinant GST-RIPK1 kinase domain, residues 1-327) (Q13546 1-327): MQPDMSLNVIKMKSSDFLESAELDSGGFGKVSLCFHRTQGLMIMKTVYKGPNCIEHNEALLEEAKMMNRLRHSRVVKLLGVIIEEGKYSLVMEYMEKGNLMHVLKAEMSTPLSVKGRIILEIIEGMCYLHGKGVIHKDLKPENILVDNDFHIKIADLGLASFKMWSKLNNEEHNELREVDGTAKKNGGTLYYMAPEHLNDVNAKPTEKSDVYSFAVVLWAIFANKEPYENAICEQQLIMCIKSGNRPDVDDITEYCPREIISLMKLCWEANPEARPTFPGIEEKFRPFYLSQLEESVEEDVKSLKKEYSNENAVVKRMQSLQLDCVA

Question: How did the EC50 turn out when `O=C1N2[C@@H](CC[C@H]2c2ccccc2)OC12CCN(c1ncc(-c3ncco3)c(C(F)(F)F)n1)CC2` [Example 21.2, (5′S,7a′R)-1-[5-(1,3-oxazol-2-yl)-4-(trifluoromethyl)pyrimidin-2-yl]-5′-phenyltetrahydro-3′H-spiro[piperidine-4,2′-pyrrolo[2,1-b][1,3]oxazol]-3′-one] was run?
Answer: < 25 nM

Question: `N#Cc1ccc(C(=O)N2CCC3(CC2)O[C@@H]2CC[C@@H](c4cc(F)cc(F)c4)N2C3=O)c(F)c1` [Example 5.20, 4-((5′S,7a′R)-5′-(3,5-difluorophenyl)-3′-oxo-tetrahydro-3′H-spiro [piperidine-4,2′-pyrrolo-[2,1-b]oxazole]-1-carbon-yl)-3-fluorobenzonitrile] was tested. Which EC50 did it give?
Answer: 212 nM

Question: With `O=C1N2[C@@H](CC[C@H]2c2ccccc2)OC12CCN(c1ccc(Cl)c3ccnn13)CC2` [Example 4.153, (5′S,7a′R)-1-(4-chloropyrazolo[1,5-a]pyridin-7-yl)-5′-phenyltetrahydro-3′H-spiro[piperidine-4,2′-pyrrolo[2,1-b] [1,3]oxazol]-3′-one] as the compound, how does the EC50 read?
Answer: < 25 nM

Question: For `O=C1N2[C@@H](CC[C@H]2c2ccccc2F)OC12CCN(c1ncc(Br)c3ncnn13)CC2` [Example 4.240, (5′S,7a′R)-1-(8-bromo [1,2,4]triazolo[1,5-c]pyrimidin-5-yl)-5′-(2-fluorophenyl)tetrahydro-3′H-spiro[piperidine-4,2′-pyrrolo[2,1-b] [1,3]oxazol]-3′-one], which EC50 is on record?
Answer: < 25 nM

Question: Which EC50 does the source give for `O=C1N2[C@H](CC13CCN(c1cc(F)ccn1)CC3)OC[C@H]2c1ccccc1` [Example 11.2, (3′R,7a′S)-1-(4-fluoropyridin-2-yl)-3′-phenyltetrahydro-5′H-spiro[piperidine-4,6′-pyrrolo[2,1-b][1,3]oxazol]-5′-one] here?
Answer: 295 nM

Question: With `O=C(c1cc(F)ccc1F)N1CC2(C1)O[C@@H]1CC[C@@H](c3ccccc3F)N1C2=O` [Example 1.18, (5′S,7a′R)-1-(2,5-difluorobenzoyl)-5′-(2-fluorophenyl)tetrahydro-3′H-spiro[azetidine-3,2′-pyrrolo[2,1-b]oxazol]-3′-one] as the compound, how does the EC50 read?
Answer: 39 nM

Question: Which EC50 does the source give for `O=C1N2[C@@H](CC[C@H]2c2ccccc2)OC12CCN(c1cc(F)c(O)cn1)CC2` [Example 4.209, (5′S,7a′R)-1-(4-fluoro-5-hydroxypyridin-2-yl)-5′-phenyltetrahydro-3′H-spiro[piperidine-4,2′-pyrrolo[2,1-b] [1,3]oxazol]-3′-one] here?
Answer: 166 nM

Question: How did the EC50 turn out when `O=C(c1c(Cl)nc2ccccn12)N1CCC2(CC1)O[C@@H]1CC[C@@H](c3cc(F)cc(F)c3)N1C2=O` [Example 6.31, (5′S,7a′R)-1-(2-chloroimidazo[1,2-a]pyridine-3-carbonyl)-5′-(3,5-difluorophen-yl)tetrahydro-3′H-spiro[piperidine-4,2′-pyrrolo[2,1-b][1,3]oxazol]-3′-one] was run?
Answer: 36.5 nM

Question: How did the EC50 turn out when `O=C(c1cnn2ccccc12)N1CCC2(CC1)O[C@@H]1CC[C@@H](c3cc(F)cc(F)c3)N1C2=O` [Example 5.72, (5′S,7a′R)-5′-(3,5-difluoro-phenyl)-1-(pyrazolo[1,5-a]-pyridine-3-carbonyl)tetra-hydro-3′H-spiro[piperidine-4,2′-pyrrolo[2,1-b]oxazol]-3′-one] was run?
Answer: 30.8 nM

Question: Which EC50 does the source give for `O=C1N2[C@@H](CC[C@H]2c2cc(F)cc(F)c2)OC12CCN(c1ncc(F)cn1)CC2` [Example 4.67, (5′S,7a′R)-5′-(3,5-difluorophenyl)-1-(5-fluoropyrimidin-2-yl)tetrahydro-3′H-spiro[piperidine-4,2′-pyrrolo[2,1-b] [1,3]oxazol]-3′-one] here?
Answer: 89.2 nM

Question: Which EC50 does the source give for `N#Cc1ccc(N2CCC3(CC2)O[C@@H]2CC[C@@H](c4cccc(F)c4)N2C3=O)n2ncnc12` [Example 4.259, 5-[(5′S,7a′R)-5′-(3-fluorophenyl)-3′-oxotetrahydro-1H,3′H-spiro[piperidine-4,2′-pyrrolo[2,1-b] [1,3]oxazol]-1-yl][1,2,4]triazolo[1,5-a] pyridine-8-carbonitrile] here?
Answer: < 25 nM

Question: `O=C(c1c(F)cccc1F)N1CCC2(CC1)O[C@@H]1CC[C@@H](c3cc(F)cc(F)c3)N1C2=O` [Example 5.56, (5′S,7a′R)-1-(2,6-difluoro-benzoyl)-5′-(3,5-difluoro-phenyl)tetrahydro-3′H-spiro[piperidine-4,2′-pyrrolo[2,1-b]oxazol]-3'-one] was tested. Which EC50 did it give?
Answer: < 25 nM

Question: For `CCOC(=O)c1ccc(N2CCC3(CC2)O[C@@H]2CC[C@@H](c4ccccc4)N2C3=O)nc1` [Example 4.200, ethyl 6-[(5′S,7a′R)-3′-oxo-5′-phenyltetrahydro-1H,3′H-spiro[piperidine-4,2′-pyrrolo[2,1-b] [1,3]oxazol]-1-yl]pyridine-3-carboxylate], which EC50 is on record?
Answer: 52.5 nM

Question: How did the EC50 turn out when `COc1cccc(F)c1C(=O)N1CCC2(CC1)O[C@@H]1CC[C@@H](c3cc(F)cc(F)c3)N1C2=O` [Example 6.72, (5′S,7a′R)-5′-(3,5-difluorophenyl)-1-(2-fluoro-6-methoxy-benzene-1-carbonyl) tetrahydro-3′H-spiro [piperidine-4,2′-pyrrolo[2,1-b][1,3]-oxazol]-3′-one] was run?
Answer: 41.3 nM

Question: For `Cc1cc2c(nc1N1CCC3(CC1)O[C@@H]1CC[C@@H](c4ccccc4)N1C3=O)CNC2=O` [Example 4.187, (5′S,7a′R)-1-(3-methyl-5-oxo-6,7-dihydro-5H-pyrrolo[3,4-b]pyridin-2-yl)-5′-phenyltetrahydro-3′H-spiro[piperidine-4,2′-pyrrolo[2,1-b] [1,3]oxazol]-3′-one], which EC50 is on record?
Answer: 357 nM

Question: For `O=C1N2C(=NC13CCN(c1cc(F)ccn1)CC3)CC[C@H]2c1cc(F)cc(F)c1` [Example 11.1], which EC50 is on record?
Answer: 885 nM

Question: How did the EC50 turn out when `CS(=O)(=O)C1CN(C(=O)c2nc(N3CCC4(CC3)O[C@@H]3CC[C@@H](c5cc(F)cc(F)c5)N3C4=O)ncc2F)C1` [Example 7.9, (5′S,7a′R)-5′-(3,5-difluorophenyl)-1-{5-fluoro-4-[3-(methylsulfonyl)azetidine-1-carbonyl]pyrimidin-2-yl}tetrahydro-3′H-spiro[piperidine-4,2′-pyrrolo[2,1-b][1,3]oxazol]-3′-one] was run?
Answer: 72.6 nM

Question: How did the EC50 turn out when `Cc1nccnc1[C@@H]1CC[C@H]2OC3(CCN(c4ccnc5c(F)cnn45)CC3)C(=O)N21` [Example 4.144, (5′S,7a′R)-1-(3-fluoropyrazolo[1,5-a]pyrimidin-7-yl)-5′-(3-methylpyrazin-2-yl)tetrahydro-3′H-spiro[piperidine-4,2′-pyrrolo[2,1-b] [1,3]oxazol]-3′-one] was run?
Answer: 41.7 nM

Question: How did the EC50 turn out when `CCn1nccc1C(=O)N1CCC2(CC1)O[C@@H]1CC[C@@H](c3cc(F)cc(F)c3)N1C2=O` [Example 6.37, (5′S,7a′R)-5′-(3,5-difluorophenyl)-1-(1-ethyl-1H-pyrazole-5-carbonyl)tetrahydro-3′H-spiro[piperidine-4,2′-pyrrolo[2,1-b] [1,3]oxazol]-3′-one] was run?
Answer: 230 nM

Question: For `N#Cc1ccc(N2CCC3(CC2)O[C@@H]2CC[C@@H](c4cccc(F)c4)N2C3=O)c(F)c1` [Example 4.53, 3-fluoro-4-[(5′S,7a′R)-5′-(3-fluorophenyl)-3′-oxotetrahydro-1H,3′H-spiro[piperidine-4,2′-pyrrolo[2,1-b] [1,3]oxazol]-1-yl]benzonitrile], which EC50 is on record?
Answer: < 25 nM

Question: Which EC50 does the source give for `O=C(c1ccccc1)N1CCC2(CC1)O[C@@H]1CC[C@@H](c3cncc(F)c3)N1C2=O` [Example 1.4, (5′S,7a′R)-1-(benzenecarbonyl)-5′-(5-fluoropyridin-3-yl)tetrahydro-3′H-spiro[piperidine-4,2′-pyrrolo[2,1-b] [1,3]oxazol]-3′-one] here?
Answer: 121 nM
